US11352394B2, “Cyclic cell penetrating peptides comprising beta-hairpin motifs and methods of making and using thereof” (Ohio State Innovation Foundation, priority 2016, dated 2022)
Where “and” joins values, the source holds several entries; their conditions need not be identical. Equal values may be shown once. Bridge positions count the residues as written; N and C are the ends. Square brackets hold non-standard residues; d marks the D form. Ends that are not written are not given here. 2Nal = N[C@@H](Cc1ccc2ccccc2c1)C(=O)O; d2Nal = N[C@H](Cc1ccc2ccccc2c1)C(=O)O; NF = naphthofluorescein

system: HeLa cells; assay: Cellular (cytosolic) uptake of NF-labeled peptides by flow cytometry (MFI); format: cell-based; details: HeLa cells, 5 μM NF-labeled peptide, 2 h, flow cytometry; relative to CPP1 (100%)
Procedure: HeLa cells were treated with 5 μM peptide for 2 h, and their cell uptake efficiencies were determined by flow cytometry analysis. The mean fluorescence intensity (MFI) values derived from cytometry analyses reflect the amounts of peptides inside the cytosol and nucleus, whereas any NF-labeled peptide entrapped inside the acidic endosomes are invisible under the experimental conditions (Id.; Qian, Z et al. Chem. Commun. 2015, 51, 2162-2165).
The binding affinity of BH23 (unlabeled) for the Grb2 SH2 domain was then determined by examining its ability to compete with the FAM-labeled ligand for binding to the Grb2 SH2 domain by fluorescence polarization (FP). […] Next, BH23 was labeled with NF at the Asn side chain through a miniPEG-Lys linker and its cytosolic entry efficiency was quantitated by treating HeLa cells with 5 μM of the labeled peptide for 2 h before flow cytometry analysis. […] BH23 was also similarly labeled at the Asn side chain with FAM and its entry into HeLa cells was examined by live-cell confocal microscopy. […] Two control peptides (BH24 and BH25) were also prepared for cellular assays. BH24 and BH25 are structurally similar to BH23, except that BH24 contained a Tyr instead of the pY residue (FIG. 11), whereas in BH25 the two hydrophobic residues critical for cellular uptake (Nal-arg) were replaced with Ala-ala (FIG. 12).
BHT1 and BHT2 were labeled with naphthofluorescein (NF) and their cytosolic uptake into HeLa cells was determined by flow cytometry (Table 10).
Additional cell penetrating compounds were prepared and tested for cytosolic delivery. In these compounds there was no beta-hairpin turn creating moiety.

Point of comparison: “cyclo(R-A-F-Φ-r-p-P-R-R-F-R-A-R-Q)-miniPEG-K(NF) (cyclo(RAF[2Nal][dR][dP]PRRFRARQ); not fully specified (residue 14); printed as cyclo(R-A-F-Φ-r-p-P-R-R-F-R-A-R-Q)-miniPEG-K(NF)) [BH9]”, “Cellular Uptake (MFINF, %)” value 104 ± 27%. Against it:
- cyclo(A-A-F-Φ-r-p-P-R-R-F-A-A-A-Q)-miniPEG-K(NF) (cyclo(AAF[2Nal][dR][dP]PRRFAAAQ); not fully specified (residue 14); printed as cyclo(A-A-F-Φ-r-p-P-R-R-F-A-A-A-Q)-miniPEG-K(NF)) [BH6] — higher, 431 ± 169%
- cyclo(A-A-F-Φ-R-p-P-R-r-F-A-A-A-Q)-miniPEG-K(NF) (cyclo(AAF[2Nal]R[dP]PR[dR]FAAAQ); not fully specified (residue 14); printed as cyclo(A-A-F-Φ-R-p-P-R-r-F-A-A-A-Q)-miniPEG-K(NF)) [BH7] — higher, 363 ± 213%
- cyclo(A-A-F-R-R-p-P-R-R-Φ-A-A-A-Q)-miniPEG-K(NF) (cyclo(AAFRR[dP]PRR[2Nal]AAAQ); not fully specified (residue 14); printed as cyclo(A-A-F-R-R-p-P-R-R-Φ-A-A-A-Q)-miniPEG-K(NF)) [BH2] — lower, 24 ± 1%
- cyclo(A-A-F-Φ-F-p-P-R-R-R-A-A-A-Q)-miniPEG-K(NF) (cyclo(AAF[2Nal]F[dP]PRRRAAAQ); not fully specified (residue 14); printed as cyclo(A-A-F-Φ-F-p-P-R-R-R-A-A-A-Q)-miniPEG-K(NF)) [BH3] — lower, 30 ± 6%

same assay, conditions: HeLa cells, 5 μM peptide, 2 h, DMEM with 10% FBS and 1% ABS; relative to CPP9 (100%)

For cyclo(AFΦPRRFQ)-miniPEG-K(NF) [BHT1], the “Cellular Uptake (MFI^NF, %) of β-hairpin transporters” value was 88% and 88 ± 11%.

same assay, conditions: HeLa cells, NF-labeled peptide, flow cytometry; relative to CPP1 (100%)

Point of comparison: “cyclo[F-F-Φ-r-p-P-R-R-F-Q-K(NF)-D-P-E-T-G-E] (cyclo(FF[2Nal][dR][dP]PRRFQK(NF)DPETGE)) [BH20]”, “Cellular Uptake (MFI^NF, %) of Keap1-Nrf2 inhibitors” value 122.4%. Against it:
- cyclo[F-F-Φ-r-P-p-R-R-F-Q-K(NF)-D-P-E-T-G-E] (cyclo(FF[2Nal][dR]P[dP]RRFQK(NF)DPETGE)) [BH22] — lower, 56.9%
- cyclo[F-Φ-r-p-P-R-R-F-K(NF)-D-P-E-T-G-E] (cyclo(F[2Nal][dR][dP]PRRFK(NF)DPETGE)) [BH21] — lower, 44.6%

same assay, conditions: HeLa cells, flow cytometry

For “cyclo[F-F-Φ-r-p-P-R-R-F-Q-K(NF)-D-P-E-T-G-E] (cyclo(FF[2Nal][dR][dP]PRRFQK(NF)DPETGE)) [BH20]”, the “Cellular entry / delivery efficiency (in words)” value was “less efficiently than BH6 and BH12”.
“cyclo[F-Φ-r-p-P-R-R-F-K(NF)-D-P-E-T-G-E] (cyclo(F[2Nal][dR][dP]PRRFK(NF)DPETGE)) [BH21]” was tested, and the “Cellular entry / delivery efficiency (in words)” value was “less efficiently than BH6 and BH12”.

same assay, conditions: HeLa cells; -L-Pro-D-Pro- instead of -D-Pro-L-Pro-

For “cyclo[F-F-Φ-r-P-p-R-R-F-Q-K(NF)-D-P-E-T-G-E] (cyclo(FF[2Nal][dR]P[dP]RRFQK(NF)DPETGE)) [BH22]”, the “Cellular entry, fold less efficient than BH20” value was about 2 fold.

same assay, conditions: HeLa cells; D-amino acid diastereomers of BH4

Point of comparison: “cyclo(A-A-F-Φ-R-p-P-R-r-F-A-A-A-Q)-miniPEG-K(NF) (cyclo(AAF[2Nal]R[dP]PR[dR]FAAAQ); not fully specified (residue 14); printed as cyclo(A-A-F-Φ-R-p-P-R-r-F-A-A-A-Q)-miniPEG-K(NF)) [BH7]”, “Improvement of cytosolic entry efficiency relative to BH4” value 5 fold. Against it:
- cyclo(A-A-F-Φ-r-p-P-R-R-F-A-A-A-Q)-miniPEG-K(NF) (cyclo(AAF[2Nal][dR][dP]PRRFAAAQ); not fully specified (residue 14); printed as cyclo(A-A-F-Φ-r-p-P-R-R-F-A-A-A-Q)-miniPEG-K(NF)) [BH6] — higher, 6 fold

same assay, conditions: relative to CPP 1 (100%); mean ± S.D. of three independent experiments

Point of comparison: 244 (FRRFRRQ; cyclic) [Peptide 244], “Cellular Uptake (MFI^NF, %), cytosolic delivery efficiency of CPPs without beta-hairpin moiety” value 31 ± 3%. Against it:
- 278 (cyclo([d2Nal]F[dF][dR]R[dR]Q); also: further D-residues, places not given here) [Peptide 278] — higher, 50 ± 9%
- 286 (CWWWRRRC; disulfide 1-8) [Peptide 286] — higher, 135%
- 241 (FFFRAQ; cyclic) [Peptide 241] — higher, 52 ± 2%
- 284 (CWWWRRRRC; disulfide 1-9) [Peptide 284] — higher, 67%
- 277 (cyclo([dF][2Nal][dF][dR]R[dR]Q)) [Peptide 277] — higher, 267 ± 62%
- 270 (cyclo(F[2Nal]R[dR]R[dR]Q)) [Peptide 270] — higher, 212 ± 42%
- 266 (FFRRRRFQ; cyclic) [Peptide 266] — higher, 162 ± 16%
- 234 (FFRRRQ; cyclic) [Peptide 234] — higher, 65%
- 279 (cyclo(F[2Nal][dR]R[dR]Q)) [Peptide 279] — higher, 76%
- 246 (RFFRRRQ; cyclic) [Peptide 246] — higher, 63 ± 19%
- 242 (FFFRRQ; cyclic) [Peptide 242] — higher, 125 ± 25%
- 235 (cyclo(FF[dR]R[dR]Q); SMILES N=C(N)NCCC[C@@H]1NC(=O)[C@@H](CCCNC(=N)N)NC(=O)[C@H](Cc2ccccc2)NC(=O)[C@H](Cc2ccccc2)NC(=O)[C@H](CCC(N)=O)NC(=O)[C@@H](CCCNC(=N)N)NC1=O) [Peptide 235] — higher, 122%
- 238 (FRRFRQ; cyclic) [Peptide 238] — within error, 38 ± 10%
- 281 (Ac-K[dF]FR[dR]R[dR]D; lactam 1-8 (inferred); not fully specified; printed as Ac-(Lys-fFRrRrD)) [Peptide 281] — higher, 129 ± 9%
- 276 (cyclo([dF]F[d2Nal][dR]R[dR]Q); also: further D-residues, places not given here) [Peptide 276] — higher, 250 ± 37%
- 269 (FFFRRRRRRQ; cyclic) [Peptide 269] — higher, 141 ± 10%
- 285 (CFWRRRRC; disulfide 1-8) [Peptide 285] — higher, 49%
- 255 (FRRFFRQ; cyclic) [Peptide 255] — higher, 109 ± 11%
- 248 (FRFRRRQ; cyclic) [Peptide 248] — higher, 132 ± 57%
- 243 (FFRRRRQ; cyclic) [Peptide 243] — higher, 89 ± 27%
- 258 (RFFRFRQ; cyclic) [Peptide 258] — higher, 96 ± 31%
- 236 (cyclo(FFR[dR]RQ); SMILES N=C(N)NCCC[C@@H]1NC(=O)[C@H](Cc2ccccc2)NC(=O)[C@H](Cc2ccccc2)NC(=O)[C@H](CCC(N)=O)NC(=O)[C@H](CCCNC(=N)N)NC(=O)[C@@H](CCCNC(=N)N)NC1=O) [Peptide 236] — higher, 40%
- 254 (FFRRFRQ; cyclic) [Peptide 254] — higher, 86 ± 12%
- 247 (RFRRFRQ; cyclic) [Peptide 247] — higher, 94 ± 9%
- 264 (RRFFFRRQ; cyclic) [Peptide 264] — higher, 112 ± 20%
- 274 (cyclo([dF]F[dF]R[dR]RQ); SMILES N=C(N)NCCC[C@@H]1NC(=O)[C@@H](CCCNC(=N)N)NC(=O)[C@H](CCCNC(=N)N)NC(=O)[C@@H](Cc2ccccc2)NC(=O)[C@H](Cc2ccccc2)NC(=O)[C@@H](Cc2ccccc2)NC(=O)[C@H](CCC(N)=O)NC1=O) [Peptide 274] — higher, 359 ± 66%
- 275 (cyclo(F[dF]F[dR]R[dR]Q); SMILES N=C(N)NCCC[C@@H]1NC(=O)[C@@H](CCCNC(=N)N)NC(=O)[C@H](Cc2ccccc2)NC(=O)[C@@H](Cc2ccccc2)NC(=O)[C@H](Cc2ccccc2)NC(=O)[C@H](CCC(N)=O)NC(=O)[C@@H](CCCNC(=N)N)NC1=O) [Peptide 275] — higher, 236 ± 26%
- 283 (CWWRRRRC; disulfide 1-8) [Peptide 283] — higher, 51%
- 272 (cyclo(F[dF]FR[dR]RQ); SMILES N=C(N)NCCC[C@@H]1NC(=O)[C@H](Cc2ccccc2)NC(=O)[C@@H](Cc2ccccc2)NC(=O)[C@H](Cc2ccccc2)NC(=O)[C@H](CCC(N)=O)NC(=O)[C@H](CCCNC(=N)N)NC(=O)[C@@H](CCCNC(=N)N)NC1=O) [Peptide 272] — higher, 230 ± 18%
- 263 (RFFFRRRQ; cyclic) [Peptide 263] — higher, 167 ± 10%
- 257 (FRFRFRQ; cyclic) [Peptide 257] — higher, 105 ± 14%
- 252 (RRFFFRQ; cyclic) [Peptide 252] — higher, 172 ± 24%
- 280 (cyclo([dF][2Nal][dR]R[dR]Q)) [Peptide 280] — higher, 214%
